30 molecules from patent US20230167073A1 (Teijin Pharma Limited, priority 2020, published 2023) can be followed below.

This test concerns the target T1, Human TRPC6 (Homo sapiens, UniProt Q9Y210).
T1 construct: expressed in transfected cells
T1 sequence (Q9Y210 1-931): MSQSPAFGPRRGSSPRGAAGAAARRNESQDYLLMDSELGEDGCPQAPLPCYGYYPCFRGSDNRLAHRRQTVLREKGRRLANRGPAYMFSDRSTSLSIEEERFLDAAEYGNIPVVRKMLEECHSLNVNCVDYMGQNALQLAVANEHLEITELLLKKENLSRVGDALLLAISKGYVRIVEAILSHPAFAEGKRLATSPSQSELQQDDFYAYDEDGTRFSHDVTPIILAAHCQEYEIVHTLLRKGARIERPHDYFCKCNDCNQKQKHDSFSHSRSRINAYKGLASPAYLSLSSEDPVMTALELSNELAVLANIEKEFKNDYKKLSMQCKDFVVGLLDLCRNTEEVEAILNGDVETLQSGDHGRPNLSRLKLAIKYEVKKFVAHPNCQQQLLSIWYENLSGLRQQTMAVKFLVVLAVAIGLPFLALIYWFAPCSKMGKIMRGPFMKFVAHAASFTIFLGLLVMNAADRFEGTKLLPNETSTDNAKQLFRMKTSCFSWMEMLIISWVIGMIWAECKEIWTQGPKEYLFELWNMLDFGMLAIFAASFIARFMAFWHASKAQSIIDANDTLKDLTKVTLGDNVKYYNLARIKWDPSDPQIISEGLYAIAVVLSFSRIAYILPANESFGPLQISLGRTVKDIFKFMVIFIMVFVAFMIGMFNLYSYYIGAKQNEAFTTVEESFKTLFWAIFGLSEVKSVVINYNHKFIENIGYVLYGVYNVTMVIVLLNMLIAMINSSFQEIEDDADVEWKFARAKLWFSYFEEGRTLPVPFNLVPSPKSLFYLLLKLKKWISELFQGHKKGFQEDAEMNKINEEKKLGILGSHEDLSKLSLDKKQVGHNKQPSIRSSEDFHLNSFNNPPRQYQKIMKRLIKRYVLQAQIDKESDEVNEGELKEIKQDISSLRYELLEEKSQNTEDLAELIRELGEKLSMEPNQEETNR
The test can be described thus: Evaluation of TRPC6 channel inhibitory activity (1), FLIPR Calcium 5 Assay Kit, OAG stimulation (Compound Nos. 1-1293). Type of test: cell-based. To be noted: Human TRPC6 stably-expressing cells, OAG 30 μM, FLIPR Calcium 5 Assay Kit; read-out: Inhibitory activity (pIC50 class) (converted). In a few lines:
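Stable human TRPC6 line; fluorescent Ca2+ dye loading, then 20 min compound exposure before 30 μM OAG trigger. Peak-minus-baseline signal converted to % inhibition against untreated and unstimulated wells; potency given as pIC50 band.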
As for `COC1CCN(c2cc(Oc3cc(C#N)ccc3-n3cc([C@@H](O)CN)cn3)nc(C)n2)CC1` [Compound 251, 4-[4-[(1R)-2-amino-1-hydroxyethyl]pyrazol-1-yl]-3-[6-(4-methoxypiperidin-1-yl)-2-methylpyrimidin-4-yl]oxybenzonitrile], the IC50 was over 1000 nM.
On to `N#Cc1ccc(-c2ncc(CN)cn2)c(Oc2nnc(N3CC(F)C3)s2)c1` [compound 721, 4-[5-(aminomethyl)pyrimidin-2-yl]-3-[[5-(3-fluoroazetidin-1-yl)-1,3,4-thiadiazol-2-yl]oxy]benzonitrile], for which the IC50 is over 1000 nM.
As for `CCCCOc1cc(Oc2cc(C#N)ccc2-c2ccc(CCN)cc2)nc(C)n1` [Compound 38, 4-[4-(2-aminoethyl)phenyl]-3-(6-butoxy-2-methylpyrimidin-4-yl)oxybenzonitrile], the figure is over 1000 nM.
Consider `Cn1nc(C2CC2)cc1Oc1cc(C#N)ccc1-c1cccc2nc(N)nn12` [compound 475, 4-(2-amino-[1,2,4]triazolo[1,5-a]pyridin-5-yl)-3-(5-cyclopropyl-2-methylpyrazol-3-yl)oxybenzonitrile], for which the IC50 is over 1000 nM.
Turning to `Cc1nc(Oc2cc(C#N)ccc2-c2ncc(CN)cn2)cc(N2CCCC2)n1` [compound 658, 4-[5-(aminomethyl)pyrimidin-2-yl]-3-(2-methyl-6-pyrrolidin-1-ylpyrimidin-4-yl)oxybenzonitrile], the IC50 is 10 to 1000 nM.
With `Cn1nc(C2CC2)cc1Oc1cc(C#N)ccc1-c1ccc(CN)c(C(=O)O)n1` [compound 618, 3-(aminomethyl)-6-[4-cyano-2-(5-cyclopropyl-2-methylpyrazol-3-yl)oxyphenyl]pyridine-2-carboxylic acid], the IC50 was 10 to 1000 nM.
As to `Cc1nc(Oc2cc(C#N)ccc2-c2ncc(CN)cn2)cc(N2CC(F)C2)n1` [compound 793, 4-[5-(aminomethyl)pyrimidin-2-yl]-3-[6-(3-fluoroazetidin-1-yl)-2-methylpyrimidin-4-yl]oxybenzonitrile], the IC50 is over 1000 nM.
Take `Cc1cc(C(C)(C)C)nn1Cc1cc(C#N)ccc1-c1ccc(CCN)cn1` [compound 1159, 4-[5-(2-aminoethyl)pyridin-2-yl]-3-[(3-tert-butyl-5-methylpyrazol-1-yl)methyl]benzonitrile]: the IC50 was 10 to 1000 nM.
To `Cn1nc(-c2ccccc2)cc1Oc1cc(C#N)ccc1-c1ccc(CCN)nc1` [Compound 174, 4-[6-(2-aminoethyl)pyridin-3-yl]-3-(2-methyl-5-phenylpyrazol-3-yl)oxybenzonitrile] belongs under 10 nM; to `Cn1nc(C2CCOCC2)cc1Oc1cc(C#N)ccc1-c1ccc(C(N)CO)cn1` (stereo not drawn) [compound 514, 4-[5-(1-amino-2-hydroxyethyl)pyridin-2-yl]-3-[2-methyl-5-(oxan-4-yl)pyrazol-3-yl]oxybenzonitrile], 10 to 1000 nM.
`N#Cc1ccc(-c2ccc(CCN)cc2)c(Sc2cnnc(N3CCOCC3)c2)c1` [compound 1239, 4-[4-(2-aminoethyl)phenyl]-3-(6-morpholin-4-ylpyridazin-4-yl)sulfanylbenzonitrile]: the IC50 was under 10 nM.
Consider `Cc1cc(Oc2cc(C#N)ccc2-c2ncc(CCN)cn2)cc(-c2cnccn2)n1` [compound 597, 4-[5-(2-aminoethyl)pyrimidin-2-yl]-3-(2-methyl-6-pyrazin-2-ylpyridin-4-yl)oxybenzonitrile], for which the IC50 was 10 to 1000 nM.
Turning to `N#Cc1ccc(-c2ncc(CCN)cn2)c(C(=O)c2cnc(N3CCOCC3)o2)c1` [compound 1084, 4-[5-(2-aminoethyl)pyrimidin-2-yl]-3-(2-morpholin-4-yl-1,3-oxazole-5-carbonyl)benzonitrile], the IC50 was 10 to 1000 nM.
Turning to `N#Cc1ccc(-c2ccc(CCN)cn2)c(Oc2cc(Cl)cnn2)c1` [Compound 88, 4-[5-(2-aminoethyl)pyridin-2-yl]-3-(5-chloropyridazin-3-yl)oxybenzonitrile], the IC50 was over 1000 nM.
Regarding `CCN(CC)c1cc(Oc2cc(F)ccc2-c2ncc(CN)cn2)n(C)n1` [compound 992, 5-[2-[5-(aminomethyl)pyrimidin-2-yl]-5-fluorophenoxy]-N,N-diethyl-1-methylpyrazole-3-amine], the IC50 is under 10 nM.
Turning to `Cn1nc(C2CC2)cc1Oc1cc(C#N)ccc1-c1ccc(CC(=O)N2CCNCC2)cn1` [compound 783, 3-(5-cyclopropyl-2-methylpyrazol-3-yl)oxy-4-[5-(2-oxo-2-piperazin-1-ylethyl)pyridin-2-yl]benzonitrile], the IC50 is over 1000 nM.
As for `N#Cc1ccc(-c2ncc(CN)cn2)c(Sc2cnnc(N3CCCC3)c2)c1` [compound 1265, 4-[5-(aminomethyl)pyrimidin-2-yl]-3-(6-pyrrolidin-1-ylpyridazin-4-yl)sulfanylbenzonitrile], the figure is 10 to 1000 nM.
To `CC(C)Nc1cc(Oc2cc(C#N)ccc2-c2ccc([C@H](O)CN)cn2)n(C)n1` [compound 549, 4-[5-[(1S)-2-amino-1-hydroxyethyl]pyridin-2-yl]-3-[2-methyl-5-(propan-2-ylamino)pyrazol-3-yl]oxybenzonitrile] belongs 10 to 1000 nM.
Turning to `Cc1nc(Oc2cc(C#N)ccc2-c2ccc(C(CN)C(F)(F)F)cc2)cc(N2CCOCC2)n1` (stereo not drawn) [Compound 101, 4-[4-(3-amino-1,1,1-trifluoropropan-2-yl)phenyl]-3-(2-methyl-6-morpholin-4-ylpyrimidin-4-yl)oxybenzonitrile], the IC50 is under 10 nM.
In the case of `Cc1cc(Oc2cc(C#N)ccc2-c2ccc(C(O)CN)cc2)cc(N2CCOCC2)n1` (stereo not drawn) [Compound 197, 4-[4-(2-amino-1-hydroxyethyl)phenyl]-3-(2-methyl-6-morpholin-4-ylpyridin-4-yl)oxybenzonitrile], the IC50 is under 10 nM.
To `Cc1nn(CC(C)C)c(C)c1Oc1cc(C#N)ccc1-c1ncc(CCN)cn1` [compound 939, 4-[5-(2-aminoethyl)pyrimidin-2-yl]-3-[3,5-dimethyl-1-(2-methylpropyl)pyrazol-4-yl]oxybenzonitrile] belongs 10 to 1000 nM; to `Cc1nc(Oc2cc(C#N)ccc2-n2cc(N3CCNCCC3=O)cn2)cc(C2CCCC2)n1` [Compound 210, 3-(6-cyclopentyl-2-methylpyrimidin-4-yl)oxy-4-[4-(7-oxo-1,4-diazepan-1-yl)pyrazol-1-yl]benzonitrile], over 1000 nM.
To `CC(C)Cc1cc(Oc2cc(C#N)ccc2-c2ccc(CCN)cn2)n(C)n1` [Compound 228, 4-[5-(2-aminoethyl)pyridin-2-yl]-3-[2-methyl-5-(2-methylpropyl)pyrazol-3-yl]oxybenzonitrile] belongs under 10 nM; to `Cn1nc(C2CC2)cc1Oc1cc(C#N)ccc1-c1ccc2ccnc(N)c2c1` [compound 452, 4-(1-aminoisoquinolin-7-yl)-3-(5-cyclopropyl-2-methylpyrazol-3-yl)oxybenzonitrile], over 1000 nM.
To `CC(C)COCc1cncn1Cc1cc(C#N)ccc1-c1ccc(CCN)cc1` [compound 1117, 4-[4-(2-aminoethyl)phenyl]-3-[[5-(2-methylpropoxymethyl)imidazol-1-yl]methyl]benzonitrile] belongs 10 to 1000 nM.
On to `Cc1nc(Nc2cc(C#N)ccc2-c2ccc(CCN)cc2)cc(N2CCOCC2)n1` [Compound 2, 4-[4-(2-aminoethyl)phenyl]-3-[(2-methyl-6-morpholin-4-ylpyrimidin-4-yl)amino]benzonitrile], for which the IC50 was under 10 nM.
Consider `Cc1nc(Oc2cc(C#N)ccc2-c2ccc(C(O)CN)c(F)c2F)cc(N2CCOCC2)n1` (stereo not drawn) [Compound 153, 4-[4-(2-amino-1-hydroxyethyl)-2,3-difluorophenyl]-3-(2-methyl-6-morpholin-4-ylpyrimidin-4-yl)oxybenzonitrile], for which the IC50 was under 10 nM.
As for `Cc1cc(Oc2cc(C#N)ccc2-c2ccc([C@H](O)CN)cn2)cc(OCC2CCCO2)n1` (stereo partly drawn) [compound 478, 4-[5-[(1S)-2-amino-1-hydroxyethyl]pyridin-2-yl]-3-[2-methyl-6-(oxolan-2-ylmethoxy)pyridin-4-yl]oxybenzonitrile], the figure is 10 to 1000 nM.
As for `CC(C)CNC(=O)c1cncn1Cc1cc(C#N)ccc1-c1ccc(CCN)cc1` [compound 1115, 3-[[2-[4-(2-aminoethyl)phenyl]-5-cyanophenyl]methyl]-N-(2-methylpropyl)imidazole-4-carboxamide], the figure is over 1000 nM; as for `CC(C)n1nc(-c2ccccc2)cc1Oc1cc(C#N)ccc1-c1ccc([C@@H](O)CN)cn1` [compound 383, 4-[5-[(1R)-2-amino-1-hydroxyethyl]pyridin-2-yl]-3-(5-phenyl-2-propan-2-ylpyrazol-3-yl)oxybenzonitrile], under 10 nM.
